Data from the supplement of paper PMC9013687.

What was measured:
Danio rerio embryo [1] = test: EC20 Otolith-eye distance_Decrease; higher = less potent; conditions: exposure time: 4 dpf
Protocol: (§1)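 Zebrafish embryos (UFZ-OBI strain) were exposed from 2 hpf for 48 h (2 dpf) or 96 h (4 dpf) at 28 °C; spontaneous tail coiling was scored at 25 hpf. Morphological features from automated image analysis (FishInspector), heart rate and locomotor response were fitted with drc models. Quantal endpoints were dichotomised at 2.5 SD from controls and fitted with a log-logistic model; heart rate, pigmentation and STC were normalised to the replicate control mean. Betamethasone was tested as betamethasone dipropionate, diflorasone as diflorasone diacetate.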

Danio rerio embryo [2] = test: EC20 Lack of SB; higher = less potent; conditions: exposure time: 4 dpf
Protocol: as §1

Danio rerio embryo [3] = test: EC20 Eye size_Decrease; higher = less potent; conditions: exposure time: 4 dpf
Protocol: as §1

Danio rerio embryo [4] = test: EC20 Any effect; higher = less potent
Protocol: as §1

Danio rerio embryo [5] = test: EC20 Bladder size_Decrease; higher = less potent; conditions: exposure time: 4 dpf
Protocol: as §1

Danio rerio embryo [6] = test: EC10 Bladder size_Decrease; higher = less potent; conditions: exposure time: 4 dpf
Protocol: as §1

Danio rerio embryo [7] = test: EC50 Otolith-eye distance_Decrease; conditions: exposure time: 4 dpf
Protocol: as §1

Danio rerio embryo [8] = test: EC20 Heart rate; higher = less potent; conditions: exposure time: 4 dpf
Protocol: as §1

Danio rerio embryo [9] = test: spontaneous tail coiling frequency (coils/min/embryo); higher = more spontaneous movement; conditions: 25 hpf
Protocol: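 Spontaneous tail coilings of zebrafish embryos exposed from 2 hpf were recorded at 24-25 hpf in 1-min videos and detected by a KNIME workflow from grey-value variance. Betamethasone was tested as the dipropionate, diflorasone as the diacetate.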

Danio rerio embryo [10] = test: EC10 Curvature_Increase; higher = less potent
Protocol: as §1

Danio rerio embryo [11] = test: EC20 LMR dark; higher = less potent; conditions: exposure time: 4 dpf
Protocol: as §1

Danio rerio embryo [12] = test: EC20 Pericard size_Increase; higher = less potent
Protocol: as §1

Danio rerio embryo [13] = test: EC20 Eye-jaw distance_Decrease; higher = less potent; conditions: exposure time: 4 dpf
Protocol: as §1

Danio rerio embryo [14] = test: EC10 Heart rate; higher = less potent; conditions: exposure time: 4 dpf
Protocol: as §1

Danio rerio embryo [15] = test: EC50 Curvature_Increase
Protocol: as §1

Danio rerio embryo [16] = conditions: exposure time: 4 dpf
Protocol: as §1

Danio rerio embryo [17] = test: EC50 Body length_Decrease; conditions: exposure time: 4 dpf
Protocol: as §1

CC1(C)O[C@@H]2[C@@H](CO[C@@]3(COS(N)(=O)=O)OC(C)(C)O[C@@H]23)O1 [Topiramate]
Conditions | EC10 Bladder size Decrease [µM] | EC10 Heart rate [µM] | EC20 Bladder size Decrease [µM] | EC20 Eye size Decrease [µM] | EC20 Eye-jaw distance Decrease [µM] | EC20 Heart rate [µM] | EC20 LMR dark [µM] | EC20 Lack of SB [µM] | EC20 Otolith-eye distance Decrease [µM] | EC50 Body length Decrease [µM] | EC50 Lack of SB [µM] | EC50 Otolith-eye distance Decrease [µM]
Danio rerio embryo [1] | – | – | – | – | – | – | – | – | 37.9 | – | – | –
Danio rerio embryo [2] | – | – | – | – | – | – | – | 40.7 | – | – | – | –
Danio rerio embryo [3] | – | – | – | 97.9 | – | – | – | – | – | – | – | –
Danio rerio embryo [5] | – | – | 34.7 | – | – | – | – | – | – | – | – | –
Danio rerio embryo [6] | 28.2 | – | – | – | – | – | – | – | – | – | – | –
Danio rerio embryo [7] | – | – | – | – | – | – | – | – | – | – | – | 80.9
Danio rerio embryo [8] | – | – | – | – | – | 28.3 | – | – | – | – | – | –
Danio rerio embryo [11] | – | – | – | – | – | – | 331 | – | – | – | – | –
Danio rerio embryo [13] | – | – | – | – | 165 | – | – | – | – | – | – | –
Danio rerio embryo [14] | – | 13.3 | – | – | – | – | – | – | – | – | – | –
Danio rerio embryo [16] | – | – | – | – | – | – | – | – | – | – | 69.7 | –
Danio rerio embryo [17] | – | – | – | – | – | – | – | – | – | 142 | – | –

Conditions | EC10 Curvature Increase [µM] | EC20 Any effect [µM] | EC20 Pericard size Increase [µM] | EC50 Curvature Increase [µM] | spontaneous tail coiling frequency
Danio rerio embryo [4], exposure time: 2 dpf | – | 59.1 | – | – | –
Danio rerio embryo [4], exposure time: 4 dpf | – | 38.7 | – | – | –
Danio rerio embryo [9], 49.6 µM | – | – | – | – | 0.85
Danio rerio embryo [9], 81.8 µM | – | – | – | – | 1.99
Danio rerio embryo [9], 135 µM | – | – | – | – | 2.03
Danio rerio embryo [9], 222.7 µM | – | – | – | – | 0.24
Danio rerio embryo [9], 367.5 µM | – | – | – | – | 1.31
Danio rerio embryo [9], 606.3 µM | – | – | – | – | 2.44
Danio rerio embryo [9], 1000 µM | – | – | – | – | 1.46
Danio rerio embryo [9], 1000.4 µM | – | – | – | – | 2.49
Danio rerio embryo [9], 1473.4 µM | – | – | – | – | 2.59
Danio rerio embryo [10], exposure time: 2 dpf | 986 | – | – | – | –
Danio rerio embryo [10], exposure time: 4 dpf | 455 | – | – | – | –
Danio rerio embryo [12], exposure time: 2 dpf | – | – | 33 | – | –
Danio rerio embryo [12], exposure time: 4 dpf | – | – | 302 | – | –
Danio rerio embryo [15], exposure time: 2 dpf | – | – | – | 1250 | –
Danio rerio embryo [15], exposure time: 4 dpf | – | – | – | 927 | –
